Assay results as given in ChEMBL document CHEMBL3745645, “Synthesis, in vitro antitumor activity, dihydrofolate reductase inhibition, DNA intercalation and structure-activity relationship studies of 1,3,5-triazine analogues” (Bioorg Med Chem Lett, 2016).
Calls of active or inactive are those of the source. No cut-off for these calls is given here.

How the values were obtained:
Format in all cases: functional
[1] = Cytotoxicity against human Caki1 cells at 10 uM after 48 hrs by SRB assay; settings: CAKI-1, 48 h, read-out: GI
SN12C = experiment: Cytotoxicity against human SN12C cells at 10 uM after 48 hrs by SRB assay; settings: for inhibition of growth at 10 µM: read-out: GI
[2] = (§1) Cytotoxicity against human TK10 cells at 10 uM after 48 hrs by SRB assay; settings: TK-10, 48 h, read-out: GI
[3] = Cytotoxicity against human UO31 cells at 10 uM after 48 hrs by SRB assay; settings: UO-31, 48 h, read-out: GI
[4] = Cytotoxicity against human DU145 cells at 10 uM after 48 hrs by SRB assay; settings: DU-145, 48 h, read-out: GI
MDA-MB-231 = experiment: Cytotoxicity against human MDA-MB-231 cells at 10 uM after 48 hrs by SRB assay
[5] = Cytotoxicity against human Hs 578T cells at 10 uM after 48 hrs by SRB assay; settings: read-out: GI
[6] = (§2) Cytotoxicity against human BT549 cells at 10 uM after 48 hrs by SRB assay; settings: BT-549, 48 h, read-out: GI
CCRF-CEM [7] = experiment: Cytotoxicity against human CCRF-CEM cells after 48 hrs by SRB assay; settings: for GI50 / TGI: pooled result: one value given for 6 cell lines, strains, targets or settings
K562 = experiment: Cytotoxicity against human K562 cells after 48 hrs by SRB assay; settings: K562, 48 h
[8] = Cytotoxicity against human MOLT4 cells after 48 hrs by SRB assay; settings: MOLT-4, 48 h, read-out: LC50 (the source's name)
[9] = Cytotoxicity against human SF268 cells after 48 hrs by SRB assay; settings: SF-268, 48 h, pooled result: one value given for 6 cell lines, strains, targets or settings
[10] = Cytotoxicity against human LOXIMVI cells after 48 hrs by SRB assay; settings: LOX IMVI, pooled result: one value given for 9 cell lines, strains, targets or settings
[11] = Cytotoxicity against human DU145 cells after 48 hrs by SRB assay; settings: DU-145, 48 h, read-out: LC50 (the source's name)
CCRF-CEM [12] = experiment: Cytotoxicity against human CCRF-CEM cells at 10 uM after 48 hrs by SRB assay
HL-60(TB) = experiment: Cytotoxicity against human HL-60(TB) cells at 10 uM after 48 hrs by SRB assay
MOLT-4 = experiment: Cytotoxicity against human MOLT4 cells at 10 uM after 48 hrs by SRB assay
RPMI-8226 = experiment: Cytotoxicity against human RPMI8226 cells at 10 uM after 48 hrs by SRB assay
[13] = Cytotoxicity against human HOP62 cells at 10 uM after 48 hrs by SRB assay; settings: HOP-62, 48 h, read-out: GI
[14] = Cytotoxicity against human COLO205 cells at 10 uM after 48 hrs by SRB assay; settings: COLO 205, 48 h, read-out: GI
[15] = (§3) Cytotoxicity against human HCC2998 cells at 10 uM after 48 hrs by SRB assay; settings: HCC 2998, 48 h, read-out: GI
[16] = (§4) Cytotoxicity against human HCT15 cells at 10 uM after 48 hrs by SRB assay; settings: HCT-15, 48 h, read-out: GI
[17] = Cytotoxicity against human SW620 cells at 10 uM after 48 hrs by SRB assay; settings: SW-620, 48 h, read-out: GI
[18] = Cytotoxicity against human SF268 cells at 10 uM after 48 hrs by SRB assay; settings: SF-268, 48 h, read-out: GI
[19] = (§5) Cytotoxicity against human SF295 cells at 10 uM after 48 hrs by SRB assay; settings: SF-295, 48 h, read-out: GI
[20] = Cytotoxicity against human LOXIMVI cells at 10 uM after 48 hrs by SRB assay; settings: LOX IMVI, read-out: GI
M14 = experiment: Cytotoxicity against human M14 cells at 10 uM after 48 hrs by SRB assay
SK-MEL-2 = experiment: Cytotoxicity against human SK-MEL-2 cells at 10 uM after 48 hrs by SRB assay
SK-MEL-28 = experiment: Cytotoxicity against human SK-MEL-28 cells at 10 uM after 48 hrs by SRB assay
SK-MEL-5 = experiment: Cytotoxicity against human SK-MEL-5 cells at 10 uM after 48 hrs by SRB assay; settings: for inhibition of growth at 10 µM: SK-MEL-5, 48 h, read-out: GI
[21] = (§6) Cytotoxicity against human UACC257 cells at 10 uM after 48 hrs by SRB assay; settings: UACC-257, 48 h, read-out: GI
[22] = (§7) Cytotoxicity against human OVCAR4 cells at 10 uM after 48 hrs by SRB assay; settings: OVCAR-4, 48 h, read-out: GI
[23] = Cytotoxicity against human OVCAR8 cells at 10 uM after 48 hrs by SRB assay; settings: OVCAR-8, 48 h, read-out: GI
[24] = Cytotoxicity against human NCI-ADR-RES cells at 10 uM after 48 hrs by SRB assay; settings: read-out: GI
[25] = Cytotoxicity against human SKOV3 cells at 10 uM after 48 hrs by SRB assay; settings: SK-OV-3, 48 h, read-out: GI
A498 = experiment: Cytotoxicity against human A498 cells at 10 uM after 48 hrs by SRB assay; settings: for inhibition of growth at 10 µM: A498, 48 h, read-out: GI
RXF 393 = experiment: Cytotoxicity against human RXF393 cells at 10 uM after 48 hrs by SRB assay
TK-10 = experiment: as §1
[26] = Cytotoxicity against human PC3 cells at 10 uM after 48 hrs by SRB assay; settings: PC-3, 48 h, read-out: GI
BT-549 = experiment: as §2
HCC 2998 = experiment: as §3
HCT-15 = experiment: as §4
SF-295 = experiment: as §5
SNB-75 = experiment: Cytotoxicity against human SNB75 cells at 10 uM after 48 hrs by SRB assay
UACC-257 = experiment: as §6
UACC-62 = experiment: Cytotoxicity against human UACC62 cells at 10 uM after 48 hrs by SRB assay
OVCAR-4 = experiment: as §7
OVCAR-5 = experiment: Cytotoxicity against human OVCAR5 cells at 10 uM after 48 hrs by SRB assay

For COc1ccc(-c2nc(Nc3ccc(F)cc3)nc(Nc3ccc4c(c3)nc(C)n4Cc3ccccc3)n2)cc1, the inhibition of growth at 10 µM [1] was 16.8%, the inhibition of growth at 10 µM (SN12C) was 51.6% and the inhibition of growth at 10 µM [2] was 25.1%. The inhibition of growth at 10 µM [3] was 70.7%, the inhibition of growth at 10 µM [4] was 45.3% and the inhibition of growth at 10 µM (MDA-MB-231; MDA-MB-231, 48 h, read-out: GI) was 68.8%. For the same compound, the inhibition of growth at 10 µM [5] was 45.5%, the inhibition of growth at 10 µM [6] was 29.3% and the LC50 (CCRF-CEM [7]) was over 100 µM. It also gave a GI50 (CCRF-CEM [7]) of 3.37 µM, a TGI (CCRF-CEM [7]) of 67.9 µM and an LC50 (K562) of over 100 µM. The CC50 [8] was over 100 µM, the GI50 [9] was 4.98 µM and the LC50 (concentration killing 50% of cells) [9] was over 100 µM. It also gave a TGI [9] of over 100 µM, a GI50 [10] of 4.43 µM and an LC50 [10] of over 100 µM. For the same compound, the TGI [10] was 31.2 µM, the CC50 [11] was over 100 µM and the “growth inhibition (GI)” value (CCRF-CEM [12]) was “Active”. The “growth inhibition (GI)” value (HL-60(TB)) was “Active”, the “growth inhibition (GI)” value (MOLT-4) was “Active” and the “growth inhibition (GI)” value (RPMI-8226) was “Active”. The inhibition of growth at 10 µM [13] was 46.7%, the inhibition of growth at 10 µM [14] was 71.8% and the inhibition of growth at 10 µM [15] was 54.5%. For the same compound, the inhibition of growth at 10 µM [16] was 66.6%, the inhibition of growth at 10 µM [17] was 54.3% and the inhibition of growth at 10 µM [18] was 53.1%. It also gave an inhibition of growth at 10 µM [19] of 51%, an inhibition of growth at 10 µM [20] of 61.1% and an inhibition of growth at 10 µM (M14; M14, 48 h, read-out: GI) of 61.1%. For the same compound, the inhibition of growth at 10 µM (SK-MEL-2; SK-MEL-2, 48 h, read-out: GI) was 51.8%, the inhibition of growth at 10 µM (SK-MEL-28; SK-MEL-28, 48 h, read-out: GI) was 43.5% and the inhibition of growth at 10 µM (SK-MEL-5) was 52.9%. The inhibition of growth at 10 µM [21] was 56.2%, the inhibition of growth at 10 µM [22] was 57.4% and the inhibition of growth at 10 µM [23] was 82.1%. For the same compound, the inhibition of growth at 10 µM [24] was 73.4%, the inhibition of growth at 10 µM [25] was 23.2% and the inhibition of growth at 10 µM (A498) was 27.3%.

In the case of Cc1nc2cc(Nc3nc(Nc4ccc(F)cc4)nc(N4CCN(C)CC4)n3)ccc2n1Cc1ccccc1, the inhibition of growth at 10 µM [1] is reported as 81.4%, the “growth inhibition (GI)” value (RXF 393) is reported as “Active” and the inhibition of growth at 10 µM (SN12C) is reported as 65.1%. The “growth inhibition (GI)” value (TK-10) was “Active”, the inhibition of growth at 10 µM [26] was 80.3% and the inhibition of growth at 10 µM [4] was 83.3%. For the same compound, the “growth inhibition (GI)” value (MDA-MB-231) was “Active”, the “growth inhibition (GI)” value (BT-549) was “Active” and the LC50 (CCRF-CEM [7]) was 8.47 µM. It also gave a GI50 (CCRF-CEM [7]) of 1.43 µM, a TGI (CCRF-CEM [7]) of 4.04 µM and an LC50 (K562) of 8.47 µM. The CC50 [8] was 8.47 µM, the GI50 [9] was 1.77 µM and the LC50 (concentration killing 50% of cells) [9] was 10.8 µM. It also gave a TGI [9] of 3.94 µM, a GI50 [10] of 1.81 µM and an LC50 [10] of 6.27 µM. For the same compound, the TGI [10] was 3.37 µM, the CC50 [11] was 20.5 µM and the “growth inhibition (GI)” value (CCRF-CEM [12]) was “Active”. The “growth inhibition (GI)” value (HL-60(TB)) was “Active”, the “growth inhibition (GI)” value (RPMI-8226) was “Active” and the inhibition of growth at 10 µM [13] was 41.8%. The “growth inhibition (GI)” value (HCC 2998) was “Active”, the “growth inhibition (GI)” value (HCT-15) was “Active” and the inhibition of growth at 10 µM [17] was 84.4%. For the same compound, the inhibition of growth at 10 µM [18] was 85.4%, the “growth inhibition (GI)” value (SF-295) was “Active” and the “growth inhibition (GI)” value (SNB-75) was “Active”. For the same compound, the “growth inhibition (GI)” value (M14) was “Active”, the “growth inhibition (GI)” value (SK-MEL-2) was “Active” and the “growth inhibition (GI)” value (SK-MEL-28) was “Active”. For the same compound, the inhibition of growth at 10 µM (SK-MEL-5) was 29.1%, the “growth inhibition (GI)” value (UACC-257) was “Active” and the “growth inhibition (GI)” value (UACC-62) was “Active”. For the same compound, the “growth inhibition (GI)” value (OVCAR-4) was “Active”, the inhibition of growth at 10 µM [23] was 99.4% and the inhibition of growth at 10 µM [24] was 56.9%. The inhibition of growth at 10 µM [25] was 31.3% and the inhibition of growth at 10 µM (A498) was 70.8%.

In the case of Cc1nc2cc(Nc3nc(Nc4ccc(F)cc4)nc(N4CCCC4)n3)ccc2n1Cc1ccccc1, the “growth inhibition (GI)” value (RXF 393) is reported as “Active”, the “growth inhibition (GI)” value (SN12C) is reported as “Active” and the “growth inhibition (GI)” value (TK-10) is reported as “Active”. The “growth inhibition (GI)” value (MDA-MB-231) was “Active”, the inhibition of growth at 10 µM [5] was 69.4% and the “growth inhibition (GI)” value (BT-549) was “Active”. It also gave an LC50 (CCRF-CEM [7]) of over 100 µM, a GI50 (CCRF-CEM [7]) of 2.54 µM and a TGI (CCRF-CEM [7]) of 5.28 µM. It also gave an LC50 (K562) of over 100 µM, a CC50 [8] of over 100 µM and a GI50 [9] of 2.08 µM. The LC50 (concentration killing 50% of cells) [9] was 8.64 µM, the TGI [9] was 17.6 µM and the GI50 [10] was 1.81 µM. It also gave an LC50 [10] of 13.7 µM, a TGI [10] of 3.68 µM and a CC50 [11] of 6 µM. For the same compound, the “growth inhibition (GI)” value (CCRF-CEM [12]) was “Active”, the “growth inhibition (GI)” value (HL-60(TB)) was “Active” and the “growth inhibition (GI)” value (MOLT-4) was “Active”. The “growth inhibition (GI)” value (RPMI-8226) was “Active”, the “growth inhibition (GI)” value (HCC 2998) was “Active” and the “growth inhibition (GI)” value (HCT-15) was “Active”. For the same compound, the “growth inhibition (GI)” value (SF-295) was “Active”, the “growth inhibition (GI)” value (SNB-75) was “Active” and the “growth inhibition (GI)” value (M14) was “Active”. For the same compound, the “growth inhibition (GI)” value (SK-MEL-2) was “Active”, the “growth inhibition (GI)” value (SK-MEL-28) was “Active” and the “growth inhibition (GI)” value (SK-MEL-5) was “Active”. For the same compound, the “growth inhibition (GI)” value (UACC-257) was “Active”, the “growth inhibition (GI)” value (UACC-62) was “Active” and the inhibition of growth at 10 µM [22] was 95.2%. The “growth inhibition (GI)” value (OVCAR-5) was “Active” and the “growth inhibition (GI)” value (A498) was “Active”.
